Each molecule was assayed against T1, sGC α1/β1 heterodimer stably expressed in CHO-K1 cell line (CHO-K1/sGC) (Homo sapiens, UniProt Q02108+Q02153) (assay: Cell-based sGC Functional Assay (CASA Assay), cGMP generation). Details: CHO-K1/sGC cells, 1 hr at 37° C., cGMP by HTRF, 4P fit; presence or absence of 1 μM DETA-NO not given; read-out: IP (nM) (inflection point).
T1 construct: expressed in transfected cells
T1 sequence (Q02108 1-690): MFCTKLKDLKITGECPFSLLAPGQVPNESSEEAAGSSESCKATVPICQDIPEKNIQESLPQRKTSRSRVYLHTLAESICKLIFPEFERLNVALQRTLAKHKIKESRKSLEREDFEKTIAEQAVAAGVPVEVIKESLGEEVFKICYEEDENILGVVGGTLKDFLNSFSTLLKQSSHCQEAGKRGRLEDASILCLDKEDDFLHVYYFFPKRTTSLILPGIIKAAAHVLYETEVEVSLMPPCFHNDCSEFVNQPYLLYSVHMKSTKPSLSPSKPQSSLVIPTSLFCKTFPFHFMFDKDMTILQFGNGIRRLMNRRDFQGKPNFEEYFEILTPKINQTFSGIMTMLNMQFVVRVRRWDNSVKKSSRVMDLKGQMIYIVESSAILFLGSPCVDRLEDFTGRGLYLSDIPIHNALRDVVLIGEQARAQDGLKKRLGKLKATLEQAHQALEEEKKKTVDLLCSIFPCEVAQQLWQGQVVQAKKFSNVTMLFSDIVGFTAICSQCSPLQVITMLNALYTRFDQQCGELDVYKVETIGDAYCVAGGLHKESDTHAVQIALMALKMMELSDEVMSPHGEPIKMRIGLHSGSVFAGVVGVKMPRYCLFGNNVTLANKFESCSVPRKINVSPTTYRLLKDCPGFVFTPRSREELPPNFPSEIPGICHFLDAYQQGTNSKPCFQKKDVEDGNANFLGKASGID
T1 sequence (Q02153 1-619): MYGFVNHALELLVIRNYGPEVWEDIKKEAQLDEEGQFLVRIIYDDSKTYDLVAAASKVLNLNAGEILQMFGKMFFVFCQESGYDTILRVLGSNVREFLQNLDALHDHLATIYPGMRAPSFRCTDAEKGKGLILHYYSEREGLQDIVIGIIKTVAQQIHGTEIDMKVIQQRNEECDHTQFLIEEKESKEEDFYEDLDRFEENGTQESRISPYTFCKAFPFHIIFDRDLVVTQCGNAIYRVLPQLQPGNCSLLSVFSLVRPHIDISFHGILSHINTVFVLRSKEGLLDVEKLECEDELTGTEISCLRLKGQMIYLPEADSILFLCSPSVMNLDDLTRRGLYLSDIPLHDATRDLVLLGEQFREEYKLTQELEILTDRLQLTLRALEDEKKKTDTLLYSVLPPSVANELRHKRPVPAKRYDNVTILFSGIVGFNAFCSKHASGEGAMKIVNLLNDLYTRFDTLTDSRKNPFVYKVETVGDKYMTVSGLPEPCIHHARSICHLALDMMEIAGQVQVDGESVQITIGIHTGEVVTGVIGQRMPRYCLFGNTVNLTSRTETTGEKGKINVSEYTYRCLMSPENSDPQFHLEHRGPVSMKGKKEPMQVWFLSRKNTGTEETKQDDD
Procedure, shortened: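 Readout is HTRF cGMP in lysates, normalised to the maximal response of reference sGC activator Compound A (100%), with a 4P fit giving IP and fold induction. Cells were CHO-K1/sGC (human α1/β1) in EBSS buffer with IBMX, incubated 1 hr at 37° C with compound. Run with and without 1 μM DETA-NO; final DMSO 2.5%.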

| SMILES | EC50 [nM] |
| --- | --- |
| CC(F)(F)c1ccc(C2(C)C(=O)Nc3nc(-c4cn5ncnc5c(CCC(F)(F)C(F)(F)F)n4)nc(N)c32)cn1 (racemic) [Example 16B, 4-amino-5-(6-(1,1-difluoroethyl)pyridin-3-yl)-5-methyl-2-(8-(3,3,4,4,4-pentafluorobutyl)-[1,2,4]triazolo[1,5-a]pyrazin-6-yl)-5H-pyrrolo[2,3-d]pyrimidin-6(7H)-one] | 13.1 |
| Cc1nc2c(CCC(F)(F)C(F)(F)F)nc(-c3nc(O)c4c(n3)NC(=O)C4(C)c3ccc(Cl)c(F)c3)cn2n1 (stereo not shown) [Example 132B, 5-(4-chloro-3-fluorophenyl)-4-hydroxy-5-methyl-2-(2-methyl-8-(3,3,4,4,4-pentafluorobutyl)-[1,2,4]triazolo[1,5-a]pyrazin-6-yl)-5H-pyrrolo[2,3-d]pyrimidin-6(7H)-one] | 442 |
| C[C@@]1(c2ccc(F)cc2)C(=O)Nc2nc(-c3cn4ncnc4c(CCC(F)(F)C(F)(F)F)n3)ncc21 [Example 172A, (S)-5-(4-fluorophenyl)-5-methyl-2-(8-(3,3,4,4,4-pentafluorobutyl)-[1,2,4]triazolo[1,5-a]pyrazin-6-yl)-5,7-dihydro-6H-pyrrolo[2,3-d]pyrimidin-6-one] | 212 |
| CC1(c2ccccn2)C(=O)Nc2nc(-c3cn4ncnc4c(CCCC(F)(F)F)n3)nc(N)c21 (stereo not shown) [Example 36B, 4-amino-5-methyl-5-(pyridin-2-yl)-2-(8-(4,4,4-trifluorobutyl)-[1,2,4]triazolo[1,5-a]pyrazin-6-yl)-5H-pyrrolo[2,3-d]pyrimidin-6(7H)-one] | 56.5 |
| CC1(c2ncc(C(F)(F)F)cn2)C(=O)Nc2nc(-c3cn4ncnc4c(CCCC(F)(F)F)n3)nc(N)c21 (racemic) [Example 51B, 4-amino-5-methyl-2-(8-(4,4,4-trifluorobutyl)-[1,2,4]triazolo[1,5-d]pyrazin-6-yl)-5-(5-(trifluoromethyl)pyrimidin-2-yl)-5H-pyrrolo[2,3-d]pyrimidin-6(7H)-one] | 15.1 |
| CCCc1nc(-c2nc(N)c3c(n2)NC(=O)[C@@]3(C)c2ccc(F)cc2)cn2nc(C)nc12 [Example 91A, (S)-4-amino-5-(4-fluorophenyl)-5-methyl-2-(2-methyl-8-propyl-[1,2,4]triazolo[1,5-a]pyrazin-6-yl)-5,7-dihydro-6H-pyrrolo[2,3-d]pyrimidin-6-one] | 668 |
| CCCCc1nc(-c2nc(N)c3c(n2)NC(=O)C3(C)c2ccc(F)c(F)c2)cn2ncnc12 (stereo not shown) [Example 64B, 4-amino-2-(8-butyl-[1,2,4]triazolo[1,5-a]pyrazin-6-yl)-5-(3,4-difluorophenyl)-5-methyl-5H-pyrrolo[2,3-d]pyrimidin-6(7H)-one] | 5.1 |
| CC(C)Cc1nc(-c2nc(O)c3c(n2)NC(=O)[C@@]3(C)c2ccc(F)cc2)cn2ncnc12 [Example 163A, (S)-5-(4-fluorophenyl)-4-hydroxy-2-(8-isobutyl-[1,2,4]triazolo[1,5-a]pyrazin-6-yl)-5-methyl-5,7-dihydro-6H-pyrrolo[2,3-d]pyrimidin-6-one] | 1630 |
| Nc1nc(-c2cn3ncnc3c(CCC(F)(F)C(F)(F)F)n2)nc2c1C(c1ccc(Cl)cn1)(C1CC1)C(=O)N2 (stereo not shown) [Example 7A, 4-amino-5-(5-chloropyridin-2-yl)-5-cyclopropyl-2-(8-(3,3,4,4,4-pentafluorobutyl)-[1,2,4]triazolo[1,5-a]pyrazin-6-yl)-5H-pyrrolo[2,3-d]pyrimidin-6(7H)-one] | 41.4 |
| CC1(c2ccc(Cl)cc2)C(=O)Nc2nc(-c3cn4ncnc4cn3)nc(N)c21 (stereo not shown) [Example 94A, 2-([1,2,4]triazolo[1,5-a]pyrazin-6-yl)-4-amino-5-(4-chlorophenyl)-5-methyl-5H-pyrrolo[2,3-d]pyrimidin-6(7H)-one] | 79.4 |
| CCCCc1nc(-c2nc(N)c3c(n2)NC(=O)C3(C)c2ccc(C(F)(F)F)cn2)cn2ncnc12 (stereo not shown) [Example 67B, 4-amino-2-(8-butyl-[1,2,4]triazolo[1,5-a]pyrazin-6-yl)-5-methyl-5-(5-(trifluoromethyl)pyridin-2-yl)-5H-pyrrolo[2,3-d]pyrimidin-6(7H)-one] | 25.5 |
| Nc1nc(-c2cn3ncnc3c(CCC(F)(F)F)n2)nc2c1C(c1ccc(F)c(F)c1)(C1CC1)C(=O)N2 (stereo not shown) [Example 83A, 4-amino-5-cyclopropyl-5-(3,4-difluorophenyl)-2-(8-(3,3,3-trifluoropropyl)-[1,2,4]triazolo[1,5-a]pyrazin-6-yl)-5H-pyrrolo[2,3-d]pyrimidin-6(7H)-one] | 270 |
| Cc1nc2c(CCC(F)(F)C(F)(F)F)nc(-c3nc(N)c4c(n3)NC(=O)C4(C)c3nnc(C4CC4)o3)cn2n1 (stereo not shown) [Example 103A, 4-amino-5-(5-cyclopropyl-1,3,4-oxadiazol-2-yl)-5-methyl-2-(2-methyl-8-(3,3,4,4,4-pentafluorobutyl)-[1,2,4]triazolo[1,5-a]pyrazin-6-yl)-5H-pyrrolo[2,3-d]pyrimidin-6(7H)-one] | 219 |

Other lines, results leading:

| EC50 [nM] | SMILES |
| --- | --- |
| 698 | CC1(c2ccc(F)cn2)C(=O)Nc2nc(-c3cn4ncnc4c(CCC(F)(F)F)n3)nc(N)c21 (stereo not shown) [Example 81B, 4-amino-5-(5-fluoropyridin-2-yl)-5-methyl-2-(8-(3,3,3-trifluoropropyl)-[1,2,4]triazolo[1,5-a]pyrazin-6-yl)-5H-pyrrolo[2,3-d]pyrimidin-6(7H)-one] |
| 209 | CCCCc1nc(-c2nc(O)c3c(n2)NC(=O)C3(C)c2ccc(C(F)(F)F)cn2)cn2ncnc12 (stereo not shown) [Example 159B, 2-(8-butyl-[1,2,4]triazolo[1,5-a]pyrazin-6-yl)-4-hydroxy-5-methyl-5-(5-(trifluoromethyl)pyridin-2-yl)-5H-pyrrolo[2,3-d]pyrimidin-6(7H)-one] |
| 2.6 | CCCCc1nc(-c2nc(N)c3c(n2)NC(=O)C3(c2ccc(F)c(F)c2)C2CC2)cn2ncnc12 (stereo not shown) [Example 65A, 4-amino-2-(8-butyl-[1,2,4]triazolo[1,5-a]pyrazin-6-yl)-5-cyclopropyl-5-(3,4-difluorophenyl)-5H-pyrrolo[2,3-d]pyrimidin-6(7H)-one] |
| 10.1 | Cc1ccc(C2(C)C(=O)Nc3nc(-c4cn5ncnc5c(CCCC(F)(F)F)n4)nc(N)c32)nc1 (stereo not shown) [Example 46B, 4-amino-5-methyl-5-(5-methylpyridin-2-yl)-2-(8-(4,4,4-trifluorobutyl)-[1,2,4]triazolo[1,5-a]pyrazin-6-yl)-5H-pyrrolo[2,3-d]pynmidin-6(7H)-one] |
| 15.5 | Nc1nc(-c2cn3ncnc3c(CCCC(F)(F)F)n2)nc2c1C(c1nnc(C(F)(F)F)o1)(C1CC1)C(=O)N2 (stereo not shown) [Example 106A, 4-amino-5-cyclopropyl-2-(8-(4,4,4-trifluorobutyl)-[1,2,4]triazolo[1,5-a]pyrazin-6-yl)-5-(5-(trifluoromethyl)-1,3,4-oxadiazol-2-yl)-5H-pyrrolo[2,3-d]pyrimidin-6(7H)-one] |
| 128 | C[C@@]1(c2ccc(F)cc2)C(=O)Nc2nc(-c3cn4ncnc4c(CCC(F)(F)C(F)(F)F)n3)nc(C(N)=O)c21 [Example 177A, 5-(4-Fluorophenyl)-5-methyl-6-oxo-2-(8-(3,3,4,4,4-pentafluorobutyl)-[1,2,4]triazolo[1,5-a]pyrazin-6-yl)-6,7-dihydro-5H-pyrrolo[2,3-d]pyrimidine-4-carboxamide] |
| 38.3 | CC1(c2ccc(F)cn2)C(=O)Nc2nc(-c3cn4ncnc4c(CCCC(F)(F)F)n3)nc(N)c21 (stereo not shown) [Example 22B, 4-amino-5-(5-fluoropyridin-2-yl)-5-methyl-2-(8-(4,4,4-trifluorobutyl)-[1,2,4]triazolo[1,5-a]pyrazin-6-yl)-5H-pyrrolo[2,3-d]pyrimidin-6(7H)-one] |

Same assay, conditions: CHO-K1/sGC cells, 1 hr at 37° C., cGMP by HTRF; presence or absence of 1 μM DETA-NO not given; read-out: % Act. (percent activation relative to maximum cGMP production of Compound A = 100%)

| Emax [%] | SMILES |
| --- | --- |
| 90 | CCCCc1nc(-c2nc(N)c3c(n2)NC(=O)C3(C)c2ccc(F)c(F)c2)cn2ncnc12 (stereo not shown) [Example 64B, 4-amino-2-(8-butyl-[1,2,4]triazolo[1,5-a]pyrazin-6-yl)-5-(3,4-difluorophenyl)-5-methyl-5H-pyrrolo[2,3-d]pyrimidin-6(7H)-one] |
| 100 | Nc1nc(-c2cn3ncnc3c(CCC(F)(F)F)n2)nc2c1C(c1ccc(F)c(F)c1)(C1CC1)C(=O)N2 (stereo not shown) [Example 83A, 4-amino-5-cyclopropyl-5-(3,4-difluorophenyl)-2-(8-(3,3,3-trifluoropropyl)-[1,2,4]triazolo[1,5-a]pyrazin-6-yl)-5H-pyrrolo[2,3-d]pyrimidin-6(7H)-one] |

— patent US9822130B2, “Triazolo-pyrazinyl derivatives useful as soluble guanylate cyclase activators” (Merck Sharp & Dohme Corp., priority 2014, dated 2017)
